# Experimental data taken from patent publication US9399123B2, “Silicone adhesive compositions” (Momentive Performance Materials Inc., priority 2012, dated 2016).
# Assay: DSC of drug crystals in adhesive (heat of melting, solid drug fraction)
# Type: physicochemical
# Protocol: To further study the interaction, the drug containing samples were analyzed via DSC using a TA Instruments Differential Scanning Calorimeter. The ionic silicone and PDMS-based samples containing ibuprofen, as well as pure drug were heated from room temperature to 200° C. at a rate of 5° C./min. The drug melting point, Tm was identified at 77° C. […] This evidence of differential interactions could explain the difference in ibuprofen release through these systems (FIGS. 5(b) and (c)).
# The difference in drug compatibility with the ionic silicone adhesive vis-á-vis the PDMS adhesive was determined via DSC as described in Example 12 above. The free drug, and drug loaded PDMS and ionic silicone adhesive were subjected to a heating and cooling cycle under air atmosphere. The DSC thermograms are show in FIG. 9(b).
# To quantify the result and the difference in compatibility, the areas were calculated as normalized heat of melting of drug crystals present in the formulation. The values were attributed to the solid fraction of distinct drug crystals present in the formulation, and the following results were obtained: […]
smiles,measurement,setting,value
C[C@]12CC[C@H]3[C@@H](CCC4=CC(=O)CC[C@@]43C)[C@@H]1CC[C@@H]2O [Testosterone],Heat of Melting,"DSC, normalized heat of melting of drug crystals",73 J/gm
same,% Solid drug fraction,from heat of melting relative to free testosterone (100% assigned),100%
